ChEMBL document CHEMBL4342507, “Targeting YAP Degradation by a Novel 1,2,4-Oxadiazole Derivative via Restoration of the Function of the Hippo Pathway” (ACS Med Chem Lett, 2020)
The source made the active and inactive calls.

Assays:
Homo sapiens = species on record: Homo sapiens; assay: Activation of MOB in human SUM159 cells assessed as phosphorylation at Thr35 residue at 0.25 to 1.25 uM measured after 12 hrs by Western blot analysis; type: cell-based
[1] = molecular target: T1, Serine/threonine-protein kinase LATS1 (Homo sapiens) (UniProt O95835); assay: Activation of LATS1 in human MDA-MB-231 cells assessed as increase in phosphorylation at Ser909 residue measured after 24 hrs by Western blot analysis; type: cell-based
T1 sequence (whole entry): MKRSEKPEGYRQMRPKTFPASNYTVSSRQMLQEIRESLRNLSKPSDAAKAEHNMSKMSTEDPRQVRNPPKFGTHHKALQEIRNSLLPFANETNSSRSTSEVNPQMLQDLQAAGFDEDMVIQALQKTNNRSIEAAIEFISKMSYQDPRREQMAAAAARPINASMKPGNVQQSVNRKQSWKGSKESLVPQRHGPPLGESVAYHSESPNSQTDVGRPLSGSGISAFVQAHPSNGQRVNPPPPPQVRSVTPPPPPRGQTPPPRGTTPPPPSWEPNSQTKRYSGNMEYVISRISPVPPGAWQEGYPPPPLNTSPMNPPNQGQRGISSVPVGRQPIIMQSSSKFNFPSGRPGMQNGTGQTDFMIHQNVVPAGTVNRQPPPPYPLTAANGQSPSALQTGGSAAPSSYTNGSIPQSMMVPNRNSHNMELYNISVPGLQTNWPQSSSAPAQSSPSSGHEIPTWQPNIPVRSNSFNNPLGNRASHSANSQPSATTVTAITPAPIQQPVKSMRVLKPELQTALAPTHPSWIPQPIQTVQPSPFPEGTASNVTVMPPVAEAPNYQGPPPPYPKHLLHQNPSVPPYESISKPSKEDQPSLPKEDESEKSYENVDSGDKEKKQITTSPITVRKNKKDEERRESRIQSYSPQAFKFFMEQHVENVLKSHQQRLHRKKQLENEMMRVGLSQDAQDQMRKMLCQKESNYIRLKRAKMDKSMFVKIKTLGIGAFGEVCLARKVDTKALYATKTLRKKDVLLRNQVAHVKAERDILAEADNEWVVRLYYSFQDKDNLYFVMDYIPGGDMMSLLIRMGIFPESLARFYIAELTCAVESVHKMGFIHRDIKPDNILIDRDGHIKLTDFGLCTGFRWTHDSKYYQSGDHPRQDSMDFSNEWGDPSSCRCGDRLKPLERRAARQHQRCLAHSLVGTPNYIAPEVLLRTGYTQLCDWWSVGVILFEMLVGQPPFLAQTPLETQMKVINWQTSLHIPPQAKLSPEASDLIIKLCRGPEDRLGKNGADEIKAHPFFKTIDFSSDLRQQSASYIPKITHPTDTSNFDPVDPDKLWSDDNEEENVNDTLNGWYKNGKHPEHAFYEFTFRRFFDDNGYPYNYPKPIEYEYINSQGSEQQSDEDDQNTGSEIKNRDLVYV

SUM-159-PT [2] = assay: Downregulation of TAZ protein expression in human SUM159 cells at 0.25 to 1.5 uM measured after 12 to 24 hrs by immunoblotting analysis; type: functional, cell-based
MCF7 [3] = assay: Cytostatic activity against human MCF7 cells assessed as cell viability at concentration of greater than IC50 measured up to 72 hrs by MTT assay; type: functional, cell-based
PC-3 [4] = assay: Downregulation of TAZ protein expression in human PC3 cells at 0.25 to 1.5 uM measured after 24 to 48 hrs by immunoblotting analysis; type: functional, cell-based
[5] = molecular target: T2, Serine/threonine-protein kinase 3/4 (Homo sapiens) (UniProt Q13043+Q13188); assay: Activation of MST1/2 in human PC3 cells assessed as effect on phosphorylation at T183/T180 residues at 0.25 to 1.5 uM measured after 24 hrs by Western blot analysis; type: cell-based
Mus musculus [6] = assay: Downregulation of C-myc protein expression in tumor of athymic Nude-Foxn1nu BALB/c mouse xenografted with human MDA-MB-231 cells at 200 mg/kg, po administered once daily via gavage for 40 days by immunoblotting analysis; type: functional, organism-based
[7] = Acute toxicity in athymic Nude-Foxn1nu BALB/c mouse xenografted with human MDA-MB-231 cells assessed as effect on serum ALT level at 200 mg/kg, po administered once daily via gavage for 14 days; type: organism-based; conditions: in vivo, 336 h
MCF7 [8] = assay: Cytotoxicity against human MCF7 cells assessed as reduction in cell viability measured after 72 hrs by MTT assay; type: functional, cell-based; conditions: MCF7, 72 h
MDA-MB-231 [9] = assay: Effect on MST2 expression in human MDA-MB-231 cells at 0.25 to 1.5 uM measured after 24 hrs by Western blot analysis; type: functional, cell-based
MDA-MB-231 [10] = assay: Activation of MOB in human MDA-MB-231 cells assessed as phosphorylation at Thr35 residue at 0.25 to 1.25 uM measured after 24 hrs by Western blot analysis; type: cell-based
SUM-159-PT [11] = assay: Effect on MST1 expression in human SUM159 cells at 0.25 to 1.5 uM measured after 12 hrs by Western blot analysis; type: functional, cell-based
[12] = molecular target: T2, Serine/threonine-protein kinase 3/4 (Homo sapiens); assay: Activation of MST1/2 in human SUM159 cells assessed as effect on phosphorylation at T183/T180 residues at 0.25 to 1.5 uM measured after 12 hrs by Western blot analysis; type: cell-based
PC-3 [13] = assay: Cytotoxicity against human PC3 cells assessed as reduction in cell viability measured after 72 hrs by MTT assay; type: functional, cell-based
[14] = molecular target: T1, Serine/threonine-protein kinase LATS1 (Homo sapiens); assay: Activation of LATS1 in human PC3 cells assessed as increase in YAP phosphorylation at Ser397 at 0.25 to 1.5 uM measured after 24 to 48 hrs by immunoblotting analysis; type: cell-based
PC-9 = assay: Downregulation of TAZ protein expression in human PC9 cells at 0.25 to 1.5 uM measured after 12 to 24 hrs by immunoblotting analysis; type: functional, cell-based
SUM-159-PT [15] = assay: Cytotoxicity against human SUM159 cells assessed as reduction in cell viability measured after 72 hrs by MTT assay; type: functional, cell-based
MDA-MB-231 [16] = assay: Antitumor activity against human MDA-MB-231 cells xenografted in athymic Nude-Foxn1nu BALB/c mouse assessed as tumor growth suppression at 200 mg/kg, po administered once daily via gavage for 40 days and measured twice a week during treatment period by caliper method relative to control; type: functional; conditions: MDA-MB-231, po, 960 h
Mus musculus [17] = assay: Downregulation of cyclin D1 protein expression in tumor of athymic Nude-Foxn1nu BALB/c mouse xenografted with human MDA-MB-231 cells at 200 mg/kg, po administered once daily via gavage for 40 days by immunoblotting analysis; type: functional, organism-based
[18] = molecular target: T1, Serine/threonine-protein kinase LATS1 (Homo sapiens); assay: Activation of LATS1 in triple-negative human SUM159 cells transfected with YAP/TAZ-TEAD reporter plasmid containing 8xGTIIC binding site and cotransfected with pCMV-Luc assessed as suppression of YAP/TAZ luciferase activity measured after 12 hrs by dual luciferase reporter assay
[19] = molecular target: Epidermal growth factor receptor (Homo sapiens) (UniProt P00533); assay: Induction of EGFR degradation in human MDA-MB-231 cells assessed as suppression of EGFR expression at 0.1 to 0.8 uM by Western blot analysis; type: cell-based
Sequence of Epidermal growth factor receptor (Homo sapiens) (P00533 whole entry): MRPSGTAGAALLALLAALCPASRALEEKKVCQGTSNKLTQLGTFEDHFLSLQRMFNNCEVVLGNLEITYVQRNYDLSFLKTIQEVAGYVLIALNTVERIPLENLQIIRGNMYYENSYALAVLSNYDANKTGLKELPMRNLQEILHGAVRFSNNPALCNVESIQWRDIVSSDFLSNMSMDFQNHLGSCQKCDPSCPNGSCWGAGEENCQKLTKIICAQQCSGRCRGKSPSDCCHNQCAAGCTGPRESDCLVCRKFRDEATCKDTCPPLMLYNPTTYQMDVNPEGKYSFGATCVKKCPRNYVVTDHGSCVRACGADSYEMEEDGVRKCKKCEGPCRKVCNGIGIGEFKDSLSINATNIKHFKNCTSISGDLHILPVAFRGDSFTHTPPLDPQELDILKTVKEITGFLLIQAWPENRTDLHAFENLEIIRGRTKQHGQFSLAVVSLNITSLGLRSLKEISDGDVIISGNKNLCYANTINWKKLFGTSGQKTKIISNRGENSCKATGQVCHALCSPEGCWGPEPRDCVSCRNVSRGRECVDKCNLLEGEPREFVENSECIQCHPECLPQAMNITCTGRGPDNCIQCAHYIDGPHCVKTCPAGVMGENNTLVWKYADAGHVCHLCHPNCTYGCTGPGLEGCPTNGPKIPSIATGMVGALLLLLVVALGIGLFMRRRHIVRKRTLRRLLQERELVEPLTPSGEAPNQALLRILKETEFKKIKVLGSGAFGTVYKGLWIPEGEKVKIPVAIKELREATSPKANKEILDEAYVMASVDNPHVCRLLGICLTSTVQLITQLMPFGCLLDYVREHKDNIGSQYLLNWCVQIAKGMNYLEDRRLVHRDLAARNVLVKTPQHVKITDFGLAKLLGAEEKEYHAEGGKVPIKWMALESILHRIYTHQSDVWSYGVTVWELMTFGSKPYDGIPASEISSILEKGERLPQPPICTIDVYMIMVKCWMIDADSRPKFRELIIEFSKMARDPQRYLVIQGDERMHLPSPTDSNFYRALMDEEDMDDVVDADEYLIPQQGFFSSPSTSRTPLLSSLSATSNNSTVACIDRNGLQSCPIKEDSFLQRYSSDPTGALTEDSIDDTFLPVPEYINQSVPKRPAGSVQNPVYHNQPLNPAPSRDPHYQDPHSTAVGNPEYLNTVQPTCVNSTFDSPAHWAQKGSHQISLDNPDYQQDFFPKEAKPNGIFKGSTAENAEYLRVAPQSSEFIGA

T2 sequence (Q13043 whole entry, looked up): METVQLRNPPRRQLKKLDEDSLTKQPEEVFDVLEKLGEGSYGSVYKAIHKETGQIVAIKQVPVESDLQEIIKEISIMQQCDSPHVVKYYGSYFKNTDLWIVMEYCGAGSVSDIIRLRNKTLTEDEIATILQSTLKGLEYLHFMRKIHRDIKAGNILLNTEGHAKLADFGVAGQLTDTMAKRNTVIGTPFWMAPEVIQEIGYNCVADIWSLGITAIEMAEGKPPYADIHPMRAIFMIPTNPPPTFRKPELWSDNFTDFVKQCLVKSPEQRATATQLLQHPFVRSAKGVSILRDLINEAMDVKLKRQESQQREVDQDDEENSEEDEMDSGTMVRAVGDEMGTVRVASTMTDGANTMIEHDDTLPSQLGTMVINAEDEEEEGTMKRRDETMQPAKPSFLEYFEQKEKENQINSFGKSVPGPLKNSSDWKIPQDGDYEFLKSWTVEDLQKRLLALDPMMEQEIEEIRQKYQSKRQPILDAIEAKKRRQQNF
T2 sequence (Q13188 whole entry, looked up): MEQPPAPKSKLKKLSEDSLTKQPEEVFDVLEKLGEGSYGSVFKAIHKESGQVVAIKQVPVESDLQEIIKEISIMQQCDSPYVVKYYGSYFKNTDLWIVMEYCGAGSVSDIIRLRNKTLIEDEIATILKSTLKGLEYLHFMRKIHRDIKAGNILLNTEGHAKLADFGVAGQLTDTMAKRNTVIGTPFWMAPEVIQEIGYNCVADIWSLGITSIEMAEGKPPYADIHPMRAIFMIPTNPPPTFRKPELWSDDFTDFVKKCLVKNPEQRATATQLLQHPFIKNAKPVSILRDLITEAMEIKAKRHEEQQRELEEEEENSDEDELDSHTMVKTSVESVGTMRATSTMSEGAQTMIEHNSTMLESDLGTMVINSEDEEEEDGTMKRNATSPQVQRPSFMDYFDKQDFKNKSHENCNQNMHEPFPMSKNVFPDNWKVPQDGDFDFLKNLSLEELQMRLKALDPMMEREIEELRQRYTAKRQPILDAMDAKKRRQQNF

CC(=O)Nc1ccc(NC(=O)Nc2cccc(-c3nc(-c4ccc(NC(=O)c5cccnc5)cc4Cl)no3)c2)cc1C(F)(F)F
65%: inhibition in vivo at 200 mg/kg (MDA-MB-231 [16])
active: Activity [1] Dose-dependent effect | inhibition (SUM-159-PT [2]) | Activity (MCF7 [3]) | inhibition (Mus musculus [6]) | Activity (MDA-MB-231 [10]) | Activity (PC-3 [13]) Dose-dependent effect | inhibition (PC-9) | Activity (SUM-159-PT [15]) Dose-dependent effect | inhibition (Mus musculus [17]) | Activity [18] Dose-dependent effect
Non-Toxic: Activity [7]
400 to 800 nM: IC50 (PC-3 [13]; PC-3, 72 h) | IC50 (SUM-159-PT [15])
> 1200 nM: IC50 (MCF7 [8])
inactive: Activity (Homo sapiens) | inhibition (PC-3 [4]) | Activity [5] | Activity (MDA-MB-231 [9]) | Activity (SUM-159-PT [11]) | Activity [12] | Activity [14] | Activity [19]
